Source: patent publication US12151018B2 (priority 2019, dated 2024)

Test system: Caenorhabditis elegans
Conditions: in vivo

Substance: argireline
- amount needed alone for the same level of effect as argireline 100 ppm plus Z. piperitum extract 500 ppm: 100,000 ppm
